Test results taken from PubChem BioAssay (NCI).
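Each compound was tested at five concentrations against cells in 96-well plates for 48 hours. The concentration for 50% growth inhibition is given as GI50. TGI: total growth inhibition.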

Tests used:
Assay in all cases: NCI tumour cell line growth inhibition, 48 h
DU-145 prostate = system: DU-145 prostate
MDA-MB-231 breast = system: MDA-MB-231 breast
NCI/ADR-RES ovarian = system: NCI/ADR-RES ovarian
PC-3 prostate = system: PC-3 prostate
T-47D breast = system: T-47D breast

Structure (SMILES) | GI50 (DU-145 prostate) [µM] | TGI (DU-145 prostate) [µM] | GI50 (MDA-MB-231 breast) [µM] | TGI (MDA-MB-231 breast) [µM] | GI50 (NCI/ADR-RES ovarian) [µM] | TGI (NCI/ADR-RES ovarian) [µM] | GI50 (PC-3 prostate) [µM] | TGI (PC-3 prostate) [µM] | GI50 (T-47D breast) [µM] | TGI (T-47D breast) [µM]
CC1NC(=O)C2=C1C(=O)NC(=O)C2 (centres undefined) | > 100 | > 100 | > 100 | > 100 | > 100 | > 100 | > 100 | > 100 |  | 
Cn1c2c(c3c(Cl)nncc31)Cc1ccccc1-2 | 6.4 | 41 | 21.2 | 73.5 | 16.3 | 44.5 | 31.8 | > 100 |  | 
CCNC(=O)Oc1ccc(/C(=C(/C)Cc2ccc(OC)cc2)c2ccc(OCCN(CC)CC)cc2)cc1 | 2.36 | 5.83 | 1.78 | 3.38 | 2.99 | 11.5 |  |  | 1.3 | 4.23
CCN(Cc1cccc(Cl)c1)c1ccc(CO)c(Cl)c1 | 11.6 | 24.8 | 12.9 | 30.2 | 10.8 | 23.8 | 9.8 | 23.2 | 0.205 | 1.14
CCCCCCCCCCCCOC1C(CNC(=O)C2OC3OC(C)(C)OC3C2NC(=O)CN2CCN(c3ccc(OC)cc3)CC2)OC2OC(C)(C)OC21 (centres undefined) | 4.56 | 15.6 | 5.65 | 17.8 | 4.03 | 16.1 | 2.82 | 9.79 | 4.33 | 23.4
CC(=O)N1N=C(c2ccc(Nc3nc(Nc4ccc(F)cc4)nc(Nc4ccc(F)cc4)n3)cc2)CC1c1ccc(N(C)C)cc1 (centres undefined) | 11.9 | 32 | 6.54 | 29.7 | 4.72 | 33.3 | 1.6 | 6.97 | 4.5 | 37.4
COc1cccc(Nc2nc3ccccc3c3occc23)c1 | 10.9 | 22.9 | 8.53 | 31.6 | 17.9 | 32.1 | 13.8 | 34.3 | 4.1 | 22.8
Cc1cc(Nc2cc(N3CCN(C)CC3)nc(/C=C/c3ccccc3)n2)n[nH]1 | 1.04 | > 10 | 0.966 | 9.95 | 2.03 | > 10 | 0.794 | > 6.61 | 1.77 | > 9.46
N#Cc1cnc(Nc2cc(NC[C@H]3CNCCO3)c(C(F)(F)F)cn2)cn1 | 8.07 | 40.2 | 13.1 | 47 | 1.73 | 84.5 | 21.1 | 87.5 | 16.6 | 51.5
CC1=CC(C)(C)NN1C1=NS(=O)(=O)c2ccccc2N1C |  | > 100 |  | > 100 |  | > 100 |  | > 100 |  | > 100
